Measured values taken from US20130302311A1, “EMERGENCY INTERVENTIONS OF ACTIVE CHARCOAL WITH DABIGATRAN ETEXILATE OVERDOSING” (BOEHRINGER INGELHEIM INTERNATIONAL GMBH, priority 2009, published 2013).

Key:
[1] = Binding of dabigatran etexilate to activated charcoal in water (simulated stomach fluid), HPLC; format: physicochemical; conditions: for dabigatran etexilate level recovered by HPLC: untreated suspension (no charcoal), filtered
Protocol: In these experiments, binding of dabigatran etexilate to active charcoal in water simulates recent ingestion (2-5, preferably 2-3 hrs) of large amounts of dabigatran etexilate in the stomach fluid. Binding of dabigatran to active charcoal in plasma simulates situations where dabigatran was absorbed after ingestion and present in high concentrations in plasma. The contents of 5, 10 and 20 capsules (150 mg/capsule) of dabigatran etexilate were suspended in 100 ml water (approx. stomach volume, pH 2.7, 2.5 and 2.4, respectively). Each suspension was divided in half. To one portion a freshly prepared activated charcoal suspension (125 mg/ml, Ultracarbon®, Merck) was added. Both suspensions (with and without charcoal) were filtered and dabigatran etexilate concentrations were assessed via HPLC.

[2] = Binding of dabigatran to active charcoal in plasma, LC-MS/MS; format: physicochemical; conditions: for dabigatran plasma level (mean±SD): untreated plasma (no charcoal)
Protocol: In these experiments, binding of dabigatran etexilate to active charcoal in water simulates recent ingestion (2-5, preferably 2-3 hrs) of large amounts of dabigatran etexilate in the stomach fluid. Binding of dabigatran to active charcoal in plasma simulates situations where dabigatran was absorbed after ingestion and present in high concentrations in plasma. In the plasma experiments, dabigatran was added to a plasma pool at supra-therapeutic concentrations of 470 and 940 ng/ml. The sample was then split, and active charcoal was added to half at the manufacturer's specified concentration (125 mg/ml), or 1:11 dilution of this. Dabigatran plasma levels were measured by a validated LC-MS/MS method.

| SMILES | dabigatran etexilate peak (HPLC) in charcoal-treated suspensions ([1]; activated charcoal suspension (125 mg/ml, Ultracarbon) added, all three tested concentrations) | dabigatran etexilate adsorbed by the activated charcoal ([1]; activated charcoal suspension (125 mg/ml, Ultracarbon), all three tested concentrations) [%] | dabigatran etexilate level recovered by HPLC ([1]; contents of 5 capsules (150 mg/capsule) in 100 ml water, pH 2.7) [mg/mL] | dabigatran etexilate level recovered by HPLC ([1]; contents of 10 capsules (150 mg/capsule) in 100 ml water, pH 2.5) [mg/mL] | dabigatran etexilate level recovered by HPLC ([1]; contents of 20 capsules (150 mg/capsule) in 100 ml water, pH 2.4) [mg/mL] | dabigatran plasma level after addition of activated charcoal ([2]; activated charcoal at 125 mg/ml or 1:11 dilution, dabigatran added at 470 and 940 ng/ml, close to or below lower limit of quantification) [ng/mL] | dabigatran plasma level (mean±SD) ([2]; dabigatran added at 470 ng/ml) [ng/mL] | dabigatran plasma level (mean±SD) ([2]; dabigatran added at 940 ng/ml) [ng/mL] |
| --- | --- | --- | --- | --- | --- | --- | --- | --- |
| CCCCCCOC(=O)NC(=N)c1ccc(NCc2nc3cc(C(=O)N(CCC(=O)OCC)c4ccccn4)ccc3n2C)cc1 [dabigatran etexilate] | no longer detectable | > 99.9 | 8.3 | 15.6 | 29.6 | – | – | – |
| Cn1c(CNc2ccc(C(=N)N)cc2)nc2cc(C(=O)N(CCC(=O)O)c3ccccn3)ccc21 [dabigatran] | – | – | – | – | – | < 1.01 | 394 ± 19.4 | 824 ± 39.3 |
